Measured values: US12226401B2, “Molecular genetic approach to treatment and diagnosis of alcohol and drug dependence” (priority 2010, dated 2025)

Tested on: alcohol dependent individuals
Assay: Randomized, double-blind, placebo-controlled, 12-week clinical trial of ondansetron vs placebo in alcohol dependent individuals by genotype: drinks per drinking day (DDD)
Assay type: in vivo, human
Conditions: for Least Squares Mean of Drinks per Drinking Days, Estimated Mean: Table 4B; for Least Squares Mean Difference, Drinks per Drinking Days, OND vs. Placebo: all patients (treatment main effect); for Log mean Drinks/Drinking Day: natural log
Method: Two hundred and seventy eight male and female alcohol dependent individuals were entered into a randomized, double-blind, placebo-controlled, 12-week clinical trial. These individuals were divided into TT vs. […] The polymorphisms in 3''-UTR region of a gene may affect mRNA expression levels by altering their stability. […] Data was transformed to its natural log to correct for skewness. […] In total, ten SNPs in 5HT3a and nine SNPs in 5HT3b genes were analyzed in this study: […]

## Cc1nccn1CC1CCc2c(c3ccccc3n2C)C1=O (stereo not drawn) [ondansetron, 9-methyl-3-[(2-methyl-1H-imidazol-1-yl)methyl]-1,2,3,9-tetrahydrocarbazol-4-one]
RS17614942 CC
  Least Squares Mean, Drinks per Drinking Days: 6.03
RS17614942 CC/AA
  Least Squares Mean, Drinks per Drinking Days: 6.09
TT + AA (RS1042173, RS1176719)
  Estimate, OND vs. Placebo, drinks per drinking days (DDD): −7.12 DDD
TT + AC (RS1042173, RS17614942)
  Estimate, OND vs. Placebo, drinks per drinking days (DDD): −3.37 DDD
TT + AG (RS1042173, RS1150226)
  Estimate, OND vs. Placebo, drinks per drinking days (DDD): −2.00 DDD
TT + AG + AC (RS1042173, RS1150226, RS17614942)
  Estimate, OND vs. Placebo, drinks per drinking days (DDD): −2.24 DDD
TT + GG (RS1042173, RS1176713)
  Estimate, OND vs. Placebo, drinks per drinking days (DDD): −6.42 DDD
TT or AA or AC (RS1042173, RS1176719, RS17614942)
  Estimate, OND vs. Placebo, drinks per drinking days (DDD): −1.08 DDD
TT or AC (RS1042173, RS17614942)
  Estimate, OND vs. Placebo, drinks per drinking days (DDD): −1.07 DDD
TT or AG (RS1042173, RS1150226)
  Estimate, OND vs. Placebo, drinks per drinking days (DDD): −1.02 DDD
TT or AG or AC (RS1042173, RS1150226, RS17614942)
  Estimate, OND vs. Placebo, drinks per drinking days (DDD): −0.99 DDD
TT or AG or GG (RS1042173, RS1150226, RS1176713)
  Estimate, OND vs. Placebo, drinks per drinking days (DDD): −1.12 DDD
TT or GG (RS1042173, RS1176713)
  Estimate, OND vs. Placebo, drinks per drinking days (DDD): −1.02 DDD
TT or GG or AC (RS1042173, RS1176713, RS17614942)
  Estimate, OND vs. Placebo, drinks per drinking days (DDD): −1.12 DDD
Table 3G, among OND-treated subjects, AG vs. GG/AA genotype
  Least Squares Mean Difference, Estimated Mean Difference, AG vs. GG/AA: −1.90
Others (AA/GG and AA/CC), n = 112
  Least Squares Mean of Drinks per Drinking Days, Estimated Mean: 6.12
RS1150226 AG or RS17614942 AC carriers, n = 23
  Least Squares Mean of Drinks per Drinking Days, Estimated Mean: 4.19
All OND subjects, RS1150226 (AG) or RS17614942 (AC) analysis
  Least Squares Mean of Drinks per Drinking Days, Estimated Mean: 5.16
Table 4C, OND vs. Placebo among AG or/and AC (RS1150226 AG, RS17614942 AC)
  Least Squares Mean Difference between Treatment and Placebo, Estimated Mean Difference: −2.12
Table 4C, OND vs. Placebo, all genotypes (main effect)
  Least Squares Mean Difference between Treatment and Placebo, Estimated Mean Difference: −0.99
Table 4C, among OND-treated subjects, (AG or AC) vs. Others
  Least Squares Mean Difference, Estimated Mean Difference, (AG or AC) vs. Others: −1.91
All OND patients, model Comb (LL + TT or AC or AG) vs Others
  Least Squares Mean, Drinks per Drinking Days: 5.32
All OND patients, model RS1150226 (GG, AG/AA)
  Least Squares Mean, Drinks per Drinking Days: 5.15
All OND patients, model RS1150226 (GG/AA, AG)
  Least Squares Mean, Drinks per Drinking Days: 5.13
All OND patients, model RS17614942 (CC, AC/AA)
  Least Squares Mean, Drinks per Drinking Days: 4.96
All OND patients, model RS17614942 (CC/AA, AC)
  Least Squares Mean, Drinks per Drinking Days: 4.98
All four variants (LL, TT, AG, AC)
  DDD reductions with OND: more than 4 DDD
Model RS17614942 (CC, AC/AA)
  Least Squares Mean Difference, Drinks per Drinking Days, OND vs. Placebo: −1.20
Model RS17614942 (CC/AA, AC)
  Least Squares Mean Difference, Drinks per Drinking Days, OND vs. Placebo: −1.30
Among AC/AA: OND vs. Placebo, model RS17614942
  Drinks per Drinking Days, Least Squares Estimated Mean Difference: −2.04
Among AC/AA: OND vs. Placebo, model RS17614942 and 5-HTTLPR
  Drinks per Drinking Days, Least Squares Estimated Mean Difference: −2.13
Among CT/TT: OND vs. Placebo, model RS4938056 and 5-HTTLPR
  Drinks per Drinking Days, Least Squares Estimated Mean Difference: −0.81
Among LL: OND vs. Placebo, model 5-HTTLPR and RS1062613
  Drinks per Drinking Days, Least Squares Estimated Mean Difference: −1.29
Among LL: OND vs. Placebo, model 5-HTTLPR and RS1150226
  Drinks per Drinking Days, Least Squares Estimated Mean Difference: −1.47
Among LL: OND vs. Placebo, model RS17614942 and 5-HTTLPR
  Drinks per Drinking Days, Least Squares Estimated Mean Difference: −1.86
Among OND: AC/AA vs. CC, model RS17614942
  Drinks per Drinking Days, Least Squares Estimated Mean Difference: −1.60
Among OND: AC/AA vs. CC, model RS17614942 and 5-HTTLPR
  Drinks per Drinking Days, Least Squares Estimated Mean Difference: −1.45
Among OND: AG/AA vs. GG, model 5-HTTLPR and RS1150226
  Drinks per Drinking Days, Least Squares Estimated Mean Difference: −1.25
Among OND: AG/AA vs. GG, model RS1150226
  Drinks per Drinking Days, Least Squares Estimated Mean Difference: −1.47
Among OND: CT/TT vs. CC, model RS4938056
  Drinks per Drinking Days, Least Squares Estimated Mean Difference: −1.24
Among OND: CT/TT vs. CC, model RS4938056 and 5-HTTLPR
  Drinks per Drinking Days, Least Squares Estimated Mean Difference: −1.13
Among OND: LL + CT/TT vs. Others, simplified model
  Drinks per Drinking Days, Least Squares Estimated Mean Difference: −1.64
Among OND: LL vs. LS/SS, model 5-HTTLPR and RS1062613
  Drinks per Drinking Days, Least Squares Estimated Mean Difference: −1.39
Among OND: LL vs. LS/SS, model 5-HTTLPR and RS1150226
  Drinks per Drinking Days, Least Squares Estimated Mean Difference: −1.27
Among OND: LL vs. LS/SS, model RS4938056 and 5-HTTLPR
  Drinks per Drinking Days, Least Squares Estimated Mean Difference: −1.37
Among OND: LL vs. LS/SS, model RS17614942 and 5-HTTLPR
  Drinks per Drinking Days, Least Squares Estimated Mean Difference: −1.33
Among OND: TC/CC vs. TT, model 5-HTTLPR and RS1062613
  Drinks per Drinking Days, Least Squares Estimated Mean Difference: −1.05
Among OND: TC/CC vs. TT, model RS1062613
  Drinks per Drinking Days, Least Squares Estimated Mean Difference: −1.06
Among TC/CC: OND vs. Placebo, model 5-HTTLPR and RS1062613
  Drinks per Drinking Days, Least Squares Estimated Mean Difference: −1.10
Among TC/CC: OND vs. Placebo, model RS1062613
  Drinks per Drinking Days, Least Squares Estimated Mean Difference: −0.90
Any one of three variants: 5-HTTLPR [LL], RS1150226 [AG], RS17614942 [AC]
  DDD reduction, OND compared to placebo: at least 1.4 DDD
Any two of the three variants (LL, AG, AC)
  DDD reduction, OND compared to placebo: at least 2.4 DDD
Any two of three variants: 5-HTTLPR (LL), RS1042173 (TT), RS1176713 (GG)
  DDD reductions with OND: at least 2 DDD
Either 5-HTTLPR (LL) or RS1176713 (GG)
  DDD reductions with OND: at least 1.4 DDD
Either one or two or three or four of the four variants (LL, TT, AG, AC)
  DDD reductions with OND: at least 0.9 DDD
Either three of the four variants (LL, TT, AG, AC)
  DDD reductions with OND: more than 2 DDD
Either two of four variants: 5-HTTLPR (LL), RS1042173 (TT), RS1150226 (AG), RS17614942 (AC)
  DDD reductions with OND: at least 2 DDD
One or two of the three variants (LL, AG, AC)
  DDD reductions, OND compared to placebo: about 1.4 DDD
One or two or three of 5-HTTLPR [LL], RS1150226 [AG], RS17614942 [AC], 120 patients
  Response to Ondansetron treatment: seemed to respond
One or two or three of the three variants (LL, AG, AC)
  DDD reductions, OND compared to placebo: at least 1.4 DDD
One or two or three or four of 5-HTTLPR (LL), RS1042173 (TT), RS1176719 (AA), RS17614942 (AC)
  Response to OND treatment: likely to respond
one, or two or three of the three variants (LL, TT, RS1176713 GG)
  DDD reductions with OND: at least 0.9 DDD
Patients who had LL+TT or RS17614942 (AC) or RS1150226 (AG), 84 of 273 patients
  DDD reduction, OND compared with placebo groups: at least 1.75 DDD
Patients with 5-HTTLPR (LL)
  Estimate, OND vs. Placebo, drinks per drinking days (DDD): −1.41 DDD
Patients with either 5-HTTLPR (LL) or RS1150226 (AG) or RS17614942 (AC)
  DDD reductions, OND compared to placebo: at least 1.4 DDD
Printed 'TT/GG and group' (rs1042173)
  Log mean Drinks/Drinking Day: 1.68±0.07 Drinks/Drinking Day
Regardless of rs17614942 genotypes, 5HT3b cohort
  Estimated mean DDD difference for OND vs. placebo: −1.15
rs1042173, among ondansetron recipients, 95% CI -0.53 to -0.13, p=0.002
  Log mean difference in Drinks/Drinking Day, TTond vs TG/GG ond: −0.33
rs1042173 TT genotype, ondansetron 4 mcg/kg, p=0.028
  Reducing severe drinking vs placebo (Log Drinks/Drinking day, mixed model): more beneficial than placebo
rs1042173 TT group that received ondansetron 4 mcg/kg
  Log mean Drinks/Drinking Day: 1.36±0.10 Drinks/Drinking Day
rs1062613 (5HT3a)
  Reduction of DDD by ondansetron, C-carriers compared with TT subjects: 1.17 sd
rs1150226 (5HT3a)
  Reduction of DDD by ondansetron, AG/AA compared to GG subjects: 1.74 sd
rs4938056 (5HT3b)
  Reduction of DDD by ondansetron, T-carriers compared with CC subjects: 1.30 sd
rs17614942 (5HT3b)
  Reduction in DDD, AC/AA treated with ondansetron compared to CC subjects: 1.97 sd
Second AG/AA vs. GG line printed under Among OND, RS1150226
  Least Squares Mean Difference, Drinks per Drinking Days, AG/AA vs. GG: −0.98
The three variants (LL, AG, AC)
  DDD reduction, OND compared to placebo: at least 4 DDD
The three variants (LL, TT, RS1176713 GG)
  DDD reductions with OND: at least 7 DDD
Within AC/AA group of rs17614942
  Reduction of DDD by ondansetron compared to the placebo: 2.41 sd
Within AG/AA group of rs1150226
  Reduction of DDD by ondansetron compared to the placebo: 1.57 sd
Within LL+AC/AA group (5HTTLPR + rs17614942)
  Least square Mean difference in DDD, ondansetron vs placebo: 3.6 sd
Within LL+CT/TT group (5HTTLPR + rs4938056)
  Least square Mean difference in DDD, ondansetron vs placebo: 1.74 sd
